Assay results reported in publication PMC3256188, “Novel Nonphosphorylated Peptides with Conserved Sequences Selectively Bind to Grb7 SH2 Domain with Affinity Comparable to Its Phosphorylated Ligand” (PLoS ONE, 2012).
Entries after “also recorded” stand apart in the source; their conditions may differ.

Tests used:
[1] = target: T1, GFP-Grb7 SH2 domain and 41-mRLUC-3×Flag complex (Homo sapiens, UniProt Q14451); assay: Competition immunoprecipitation, GFP-Grb7 SH2 domain and 41-mRLUC-3×Flag complex; assay type: binding
T1 construct: expressed in transfected cells; host or cells: HEK293T
T1 sequence (Q14451 425-532, one chain of several): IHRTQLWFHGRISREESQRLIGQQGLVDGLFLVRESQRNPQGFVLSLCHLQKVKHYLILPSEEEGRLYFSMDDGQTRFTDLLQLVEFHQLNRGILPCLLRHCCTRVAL
Description: To see whether the nonphosphorylated peptide could effectively compete with phosphorylated ligand for binding to the Grb7 SH2 domain, the phosphorylated ligand pY (1180) (DEEYEpY(1180)MNRRR), which was previously shown to interact with the Grb7 SH2 domain [6], and the nonphosphorylated 41-A ligand ([…]), which contains the first twenty-two amino acid-motif close to the N-terminus of peptide 41, were examine for their abilities to interfere with the GFP-Grb7 SH2 domain and 41-mRLUC-3×Flag complex using immunoprecipitation with anti-GFP antibody.
The phosphorylated ligand pY (1180) (DEEYEpY(1180)MNRRR) from the ErbB3 and the nonphosphorylated peptide 41-A ([…] RV) from nonphosphorylated peptide 41 were synthesized by the China Peptides Co., Ltd. The HPLC purification analysis and MS quality analysis reports were obtained.
HEK293T cells were washed 5 times with ice-cold PBS buffer and scraped off the plates into cell lysis buffer (1% Nonidet P-40, 0.02 M TRIS (pH 7.5), 0.15 M sodium chloride, 0.001 M EDTA, 0.5% sodium deoxycholate, 0.1% SDS and 0.001 M PMSF). Lysates were incubated on ice for 5 minutes, vortexed 2 times for 30 seconds each and centrifuged at 12,000 rpm for 15 minutes at 4°C. After centrifuging twice, the supernatant was incubated with anti-Flag antibody (1∶100, M20008M, Abmart, China) for 6–8 h at 4°C. Protein G agarose (40 µL) was added into 1 mL of the above mixture and coupled to the anti-Flag antibody for 3 h at 4°C. The immunoprecipitates were washed 2–3 times with PBS buffer (PH 7.4), and the sediments were diluted with 5×SDS electrophoresis buffer and heated at 97°C for 10 minutes. The proteins were separated by SDS-PAGE and transferred to PVDF membranes (IPVH00010, Millipore, USA). The membranes were incubated with anti-GFP antibody (1∶2000, P30010, Abmart, China) and goat anti-rabbit secondary antibody (1∶4000, M21002, Abmart, China) to identify target proteins. For the competition analyses, the immunoprecipitation complexes were mixed with anti-Flag antibody and different concentrations of the synthesized phosphorylated ligands or the nonphosphorylated ligands. The proteins were separated by SDS-PAGE, and the SH2 domain of Grb7 protein was analyzed using anti-GFP antibody. Western blot analysis was carried out using the Image J [37], the IC50 values were calculated by regression analyses using SPSS 17.0.

Grb7 SH2 domain [2] = target: Grb7 SH2 domain; set-up: method as in earlier work; conditions: binding to Grb7 SH2 domain; calorimetric (title of ref 27); read-out: dissociation constant (Kd); cited from earlier work
Description: Many drugs are designed to target the SH2 domain of Grb7. […] This peptide also serves as a model for chemical drug de ...

[3] = system: EYFP-tagged Grb7 SH2 domain; assay: Bioluminescence Resonance Energy Transfer (BRET) in HEK293T cells; assay type: cell-based; conditions: 36 h after transfection, EYFP-Grb7 SH2 + mRLUC-tagged peptide, coelenterazine 5.9 µM, eighteen group ratios
Description: For the BRET assay, the EYFP fragment was generated by PCR amplification. The ErbB3-mRLUC plasmid was constructed by the Beijing Sino Biological Inc. The SH2 domain of Grb7 was fused to the EYFP fragment, and the nonphosphorylated peptides 10 and 41 were fused to the mRLUC fragment. The Grb7 SH2 domain sequence was inserted at the C-terminus of the EYFP tag.
(§1) HEK293T cells at 70%–80% confluency were given fresh DMEM (high glucose) culture medium and transfected with plasmids using the calcium phosphate method. Samples were collected at 36 h after transfection.
In BRET, the Renilla luciferase (mRLUC) is fused to the candidate protein, and the green fluorescent protein mutant (EYFP) is fused to the target protein. Interactions between the two fused proteins bring the luciferase and the green fluorescent protein into close proximity, which promotes resonance energy transfer from mRLUC to EYFP [38]. Then EYFP is […] at 530 nm, and the emission is used to determine the binding between the two interacting proteins. In this study, HEK293T cells were collected at 36 h after transfection, 100 µL of mixed cell suspension was added to the u-bottom 96-well microtiter plates (Corning, USA) before measurement. The measurement of bioluminescence, with rasters of 460/40 nm and 518/20 nm, was performed on Synergy4 Multi-Mode Microplates Readers (BioTek, USA). The BRET reaction was initiated by 5.9 µM coelenterazine (Promega, USA). Data were analyzed by one-factor analysis of variance using SPSS 17.0.

[4] = system: SK-BR-3 breast cancer cells; assay: MTS cell proliferation assay; assay type: cell-based; conditions: double-factor variance analysis, n = 10, p<0.001, Figure 4B
Method: For the cell proliferation assay, the anti-Grb7 antibody (N-20, Santa Cruz Biotechnology, USA) and the anti-Flag antibody (M20008M, Abmart, China) were used for the western blot, and MTS (Promega, USA) was used for the analysis of cell proliferation.
The MTS cell proliferation assay was performed to analyze the proliferation of SK-BR-3 breast cancer cells (Cell culture center of PUMC, China) according to the manufacturer's instructions (Promega, USA). SK-BR-3 cells at 70%–80% confluency were transiently transfected respectively with plasmids of 41-mRLUC-3×Flag or mRLUC-3×Flag and Mega Tran 1.0 (OriGene, USA). Beginning from 12 h after transfection, 400 µg/mL G418 (11811-023, Invitrogen, USA) was used to select for the transfected cells. The u-bottom 96-well microtiter plates (Corning, USA) were seeded with approximately 7.50×10^3 cells per well at 18 h after transfection. […] The absorbance at 492 nm of transfected cells and control DMEM medium was measured separately at 18 h, 24 h, 36 h, 48 h and 60 h after transfection on Synergy4 Multi-Mode Microplates Readers (BioTek, USA). The absorbance was adjusted by differences in the absorbance between cell culture medium and control medium without seeded cells. The data were analyzed by double-factor variance analysis using SPSS 17.0.

Grb7 SH2 domain [5] = assay: Co-immunoprecipitation from transfected HEK293T cells; assay type: binding; conditions: HEK293T co-transfected with peptide-mRLUC-3×Flag and EGFP-Grb7 SH2, 36 h; anti-Flag IP, anti-GFP blot
Description: In the co-immunoprecipitation assay, the mRLUC fragment was generated by PCR amplification. The inserted sequence of the Grb7 SH2 domain was as follows: N- […]-C. This sequence was inserted at the C terminus of the EGFP tag. The sequence of peptide 10 was as follows: N-[…]-C. The sequence of peptide 41 was as follows: N-[…]-C. The sequence of peptide 10CM was as follows: N-[…]-C. The nonphosphorylated peptide and the mRLUC fragment were inserted at the N-terminus of the Flag tag. The mRLUC fragment was fused with the nonphosphorylated peptide so that they could be easily identifiable. The empty vector containing the mRLUC fragment was used as the negative control.
as §1
HEK293T cells were washed 5 times with ice-cold PBS buffer and scraped off the plates into cell lysis buffer (1% Nonidet P-40, 0.02 M TRIS (pH 7.5), 0.15 M sodium chloride, 0.001 M EDTA, 0.5% sodium deoxycholate, 0.1% SDS and 0.001 M PMSF). […] The proteins were separated by SDS-PAGE, and the SH2 domain of Grb7 protein was analyzed using anti-GFP antibody. Western blot analysis was carried out using the Image J [37], the IC50 values were calculated by regression analyses using SPSS 17.0.

Substance	interference with binding of the Grb7 SH2 domain to peptide 41 ([1]; 0.0072 mM)	interference with binding of the Grb7 SH2 domain to peptide 41 ([1]; 0.036 mM)	interference with binding of the Grb7 SH2 domain to peptide 41 ([1]; 0.18 mM)	disruptive effect on the Grb7 SH2 domain/peptide 41 interaction ([1]; Figure 3A, overall, concentration not given)	binding affinity to the Grb7 SH2 domain, comparison of 41-A and pY (1180) ([1]; in vitro competition, in words)	Kd (Grb7 SH2 domain [2]) [nM]	BRET luminescence ratio of 530/480 nm [3]	adjusted absorbance between transfected cell groups and between time points [4]	pull-down of the Grb7 SH2 domain (co-immunoprecipitation) (Grb7 SH2 domain [5])	binding to the Grb7 SH2 domain in the absence of competitor ([1]; in the absence of peptide pY (1180) and peptide 41-A, Figure 3A)
DEEYEpY(1180)MNRRR [pY (1180), phosphorylated ligand pY (1180) (DEEYEpY(1180)MNRRR) from the ErbB3, reference compound]	did not significantly interfere	did not significantly interfere	nearly abolished	abolished the association between the Grb7 SH2 domain and nonphosphorylated peptide 41	at least comparable binding affinities to the Grb7 SH2 domain	~1150	–	–	–	–
N-VGTWTTRGPWCPCVAVGIPTQPTTSSEPSPPSNPPWDPGRVLLGRIVWPGLLALGIPTHHQNDTYNSPHAHPNRDP-C [peptide 41, nonphosphorylated peptide with two twenty-two residue motifs, 41-A and 41-B]	–	–	–	–	–	–	significantly stronger	Statistically significant differences existed in both of groups	pulled down the Grb7 SH2 domain; also recorded: co-immunoprecipitated	could bind to the Grb7 SH2 domain
